Seven compounds from patent US20160060234A1, “CYSTEINE DERIVATIVE” (AJINOMOTO CO., INC., priority 2010, published 2016) can be followed below.

Where a name gives a salt, the structure may show the parent alone.

Series [1] can be described thus: Time-course stability test at 70° C. of cis form-trans form mixture (Experimental Example 2). The note with it: 5 days; for residual ratio (%) at pH 4: 25 mM phosphate buffer pH 4, 70° C.; for residual ratio (%) at pH 4 / residual ratio (%) at pH 5 / residual ratio (%) at pH 6 / residual ratio (%) at pH 7: HPLC area vs day 0; for preservation stability (in words, from Table 1): 25 mM phosphate buffer pH 4-7, 70° C.; for residual ratio (%) at pH 5: 25 mM phosphate buffer pH 5, 70° C.; for residual ratio (%) at pH 6: 25 mM phosphate buffer pH 6, 70° C.; for residual ratio (%) at pH 7: 25 mM phosphate buffer pH 7, 70° C. The series is classed as physicochemical. How it is done:
A time-course stability test was performed using about 1:1 mixture (20 mg/20 ml) of cis form-trans form of N-Ac-CP2Et obtained in Synthetic Example 7 in a 25 mM phosphate buffer at pH 4, 5, 6, and 7 and 70° C. in the same manner as in Examples Experimental Example 1. The test was performed for 5 days. As an index of a time-course stability test at 70° C., the area value of a target substance 5 days after start of the stability test relative to the area value of the target substance on day 0 after start of the stability test was calculated in % on an HPLC chart and used as a residual ratio.
Detector: ultraviolet absorption spectrophotometer (measurement wavelength; 210 nm) Column: Inertsil ODS-3 (High Pressure type, GL Sciences) (particle size 3 μm, inner diameter 4.6 mm, length 250 mm) eluent: A: 0.05M KH2PO4 (adjusted to pH2 with 85% H3PO4), B: MeOH gradient conditions: 0-5 minute: A=100, −25 minute: A:B=50:50, −35 minute: A:B=50:50, −40 minute: A=100, −45 minute: A=100 flow rate: 0.8 mL/minute column temperature: 30° C. sample concentration: 25-50 mg/dL injection volume: 20 μL retention time (minute): N-Ac-CP2Et (cis form): 31.9, N-Ac-CP2Et (trans form): 33.9

A further series deals with B16 melanoma. The series can be described thus: Eumelanin production suppression test. The series is classed as cell-based. The note with it: Mus musculus, 72 h, 3 days culture, absorbance of medium at 450 nm, control = 100%, read-out: 50% melanin production suppressing concentration. As to the method:
B16 melanoma was cultured in DMEM (Dulbecco's Modified Eagle Medium) (high glucose, containing 10% serum). Confluent cells were detached with trypsin, and plated on a 96 well plate. After cell adhesion to the plate the next day, the medium was changed to DMEM added with each evaluation sample (control (no sample addition), cysteine derivatives of each Synthetic Example) at a predetermined evaluation concentration (diluted from 10 mM according to sample), and the cells were cultured for 3 days. The 96 well plate was shaken for 5 minutes in a plateshaker, and the absorbance of the medium at 450 nm was measured by a microplatereader. The absorbance after 3 days from the addition of a predetermined concentration of each sample was shown in relative percentage to the measured value (absorbance) of the control (no sample addition) as 100%, and the concentration necessary for suppressing eumelanin production in each sample by 50% was calculated as 50% melanin production suppressing concentration relative to the amount of eumelanin in the control as 100%.
The microplatereader used in this eumelanin production suppression test was Benchmark microplatereader, manufactured by BIORAD.

Series [2] is described as follows: Time-course stability test at 70° C. (Experimental Example 1). To be noted: 25 mM phosphate buffer, pH 4, 5, 6 and 7, 70° C., 4 days, HPLC. It is filed as physicochemical. How it is done: A time-course stability test was performed using N-Ac-CP2Et obtained in Synthetic Example 1 and N-Ac-CP obtained in Synthetic Example 13 in a 25 mM phosphate buffer at pH 4, 5, 6, and 7 and 70° C. The test was performed for 4 days. As comparison targets, CP obtained in Reference Example 1, and CP2Et obtained in Reference Example 2 were used. For the time-course stability test, HPLC; (pump) HITACHI L-7100, (Autosampler) HITACHI L-2200, and (detector) HITACHI L-4000 were used.
As an index of a time-course stability test at 70° C., the area value of a target substance after time course changes relative to the area value of the target substance on day 0 after start of the stability test was calculated in % on an HPLC chart and used as a residual ratio.
detector: ultraviolet absorption spectrophotometer (measurement wavelength; 210 nm) column: Inertsil ODS (GL Sciences) (particle size 3 μm, inner diameter 4.6 mm, length 250 mm) eluent: 4 mL/L aqueous phosphoric acid solution:methanol=3:1 (v/v) flow rate: 0.8 mL/minute column temperature: 50° C. sample concentration: 100 mg/dL injection volume: 20 μL retention time (minute): CP: 4.6, 4.8 (diastereomer mixture), N-Ac-CP: 8.0 […]

Compound `CCOC(=O)C1(C)SCC(C(=O)O)N1C(C)=O` (centres unmarked) (as salt: salt) [Synthetic Example 1, N-acetyl-2-methylthiazolidine-2,4-dicarboxylic acid 2-ethyl ester] gave a melting point of 138 to 141 °C.

With `CCOC(=O)C1(C)SCC(C(=O)O)N1C(C)=O` (stereo not drawn) [N-Ac-CP2Et (cis form), N-acetyl-2-methylthiazolidine-2,4-dicarboxylic acid 2-ethyl ester], in series [1], the “residual ratio (%) at pH 4” value was 69.9%; the “preservation stability (in words, from Table 1)” value is recorded as “good preservation stability”; the “residual ratio (%) at pH 5” value was 93.5%; the “residual ratio (%) at pH 6” value is recorded as 96.9%. The “residual ratio (%) at pH 7” value in series [1] is on record as more than 99.9%.

In the case of `CCOC(=O)C1(C)SCC(C(=O)O)N1C(C)=O` (stereo not drawn) [N-Ac-CP2Et (trans form), N-acetyl-2-methylthiazolidine-2,4-dicarboxylic acid 2-ethyl ester], in series [1], the “residual ratio (%) at pH 4” value is reported as 95.8%; the “preservation stability (in words, from Table 1)” value is reported as “good preservation stability”; the “residual ratio (%) at pH 5” value is 99.8%; the “residual ratio (%) at pH 6” value is more than 99.9%. Moreover, the “residual ratio (%) at pH 7” value in series [1] is given as more than 99.9%.

Regarding `CCOC(=O)C1(C)SCC(C(=O)O)N1C(C)=O` (centres unmarked) [Synthetic Example 1, N-acetyl-2-methylthiazolidine-2,4-dicarboxylic acid 2-ethyl ester], in the series on B16 melanoma, the IC50 was 4.54 mM. The “preservation stability (residual ratio, FIGS. 1 to 4)” value in series [2] was “preservation stability better than CP and CP2Et”.

As to `CC(=O)N1C(C(=O)O)CSC1(C)C(=O)O` (centres unmarked) [Synthetic Example 13, N-acetyl-2-methylthiazolidine-2,4-dicarboxylic acid], in the series with B16 melanoma, the IC50 came out at 5.47 mM. In addition, the “preservation stability (residual ratio, FIGS. 1 to 4)” value in series [2] is “preservation stability better than CP and CP2Et”.

Turning to `CCOC(=O)C1CSC(C)(C(=O)OCC)N1C(C)=O` (centres unmarked) [Synthetic Example 19, N-acetyl-2-methylthiazolidine-2,4-dicarboxylic acid 2,4-diethyl ester], the IC50 in the series with B16 melanoma is 2.61 mM.

For the compound `CCOC(=O)C1(C)SCC(C(=O)OC(C)C)N1C(C)=O` (centres unmarked) [Synthetic Example 20, N-acetyl-2-methylthiazolidine-2,4-dicarboxylic acid 2-ethyl 4-isopropyl ester], the IC50 with B16 melanoma was determined as 1.42 mM.
